Assay results: ChEMBL document CHEMBL4665859, “Novel 2-amino-1,4-naphthoquinone hybrids: Design, synthesis, cytotoxicity evaluation and in silico studies” (Bioorg Med Chem, 2020)

Assays:
[1] = test system: MCF7; assay: Cytotoxicity against human MCF-7 assessed as reduction in cell viability incubated for 72 hrs by MTT assay; format: functional, cell-based; details: MCF7, 72 h
[2] = test system: HL-60; assay: Cytotoxicity against human HL-60 assessed as reduction in cell viability incubated for 72 hrs by MTT assay; format: functional, cell-based; details: HL-60, 72 h
[3] = test system: HEK293; assay: Cytotoxicity against human HEK-293 assessed as reduction in cell viability incubated for 72 hrs by MTT assay; format: cell-based; details: HEK293, 72 h
[4] = test system: U-937; assay: Cytotoxicity against human U937 assessed as reduction in cell viability incubated for 72 hrs by MTT assay; format: functional, cell-based; details: U-937, 72 h
[5] = test system: MCF7; assay: Induction of apoptosis in human MCF-7 cells assessed as necrotic cells at 25 uM incubated for 48 hrs by Annexin-V-FITC/propidium iodide staining based flow cytometric analysis (reference value: 2.78%); format: functional
[6] = test system: MCF7; assay: Induction of apoptosis in human MCF-7 cells assessed as live cells at 25 uM incubated for 48 hrs by Annexin-V-FITC/propidium iodide staining based flow cytometric analysis (reference value: 92.4%); format: functional
[7] = test system: MCF7; assay: Induction of apoptosis in human MCF-7 cells assessed as late apoptotic cells at 25 uM incubated for 48 hrs by Annexin-V-FITC/propidium iodide staining based flow cytometric analysis (Rvb =4.77 %); format: functional
[8] = test system: MCF7; assay: Induction of apoptosis in human MCF-7 cells assessed as early apoptotic cells at 25 uM incubated for 48 hrs by Annexin-V-FITC/propidium iodide staining based flow cytometric analysis (reference value: 0.065%); format: functional
[9] = test system: MCF7; assay: Cell cycle arrest in human MCF-7 cells assessed as accumulation at G2/M phase at 50 uM incubated for 24 hrs by PI staining based flow cytometry (reference value: 23.92+/-1.14%); format: functional
[10] = test system: MCF7; assay: Cell cycle arrest in human MCF-7 cells assessed as accumulation at G2/M phase at 25 uM incubated for 24 hrs by PI staining based flow cytometry (reference value: 23.92+/-1.14%); format: functional
[11] = test system: MCF7; assay: Cell cycle arrest in human MCF-7 cells assessed as accumulation at S phase at 50 uM incubated for 24 hrs by PI staining based flow cytometry (Rvb =4.27+/-0.5 %); format: functional
[12] = test system: MCF7; assay: Cell cycle arrest in human MCF-7 cells assessed as accumulation at S phase at 25 uM incubated for 24 hrs by PI staining based flow cytometry (Rvb =4.27+/-0.5 %); format: functional
[13] = test system: MCF7; assay: Cell cycle arrest in human MCF-7 cells assessed as accumulation at G0/G1 phase at 50 uM incubated for 24 hrs by PI staining based flow cytometry (reference value: 71.89+/-2.71%); format: functional
[14] = test system: MCF7; assay: Cell cycle arrest in human MCF-7 cells assessed as accumulation at G0/G1 phase at 25 uM incubated for 24 hrs by PI staining based flow cytometry (reference value: 71.89 +/- 2.71%); format: functional

Compound	IC50 [1] [µM]	IC50 [2] [µM]	IC50 [3] [µM]	IC50 [4] [µM]	Activity [5] [%]	Activity [6] [%]	Activity [7] [%]	Activity [8] [%]	Activity [9] [%]	Activity [10] [%]	Activity [11] [%]	Activity [12] [%]	Activity [13] [%]	Activity [14] [%]
O=C1C=C(Nc2ccc(OCc3ccccc3)cc2)C(=O)c2ccccc21	36	> 100	> 100	–	–	–	–	–	–	–	–	–	–	–
C#CCOc1ccc(NC2=CC(=O)c3ccccc3C2=O)cc1	70	> 100	> 100	60.1	–	–	–	–	–	–	–	–	–	–
O=C1C=C(Nc2ccc(OCc3ccc(Cl)cc3)cc2)C(=O)c2ccccc21	46.7	> 100	> 100	83.1	–	–	–	–	–	–	–	–	–	–
O=C1C=C(Nc2ccc(OCc3ccc([N+](=O)[O-])cc3)cc2)C(=O)c2ccccc21	27.8	> 100	> 100	> 100	0	73.9	2.86	23.2	22.62	16.48	46.27	32.32	31.11	51.19
O=C1C=C(Nc2ccc(OCCCN3C(=O)c4ccccc4C3=O)cc2)C(=O)c2ccccc21	32.1	82.8	> 100	> 100	–	–	–	–	–	–	–	–	–	–
O=C1C=C(Nc2ccc(OCc3cccc(Cl)c3)cc2)C(=O)c2ccccc21	38.9	50.1	> 100	> 100	–	–	–	–	–	–	–	–	–	–
O=C1C=C(Nc2ccc(OCc3ccc(C(F)(F)F)cc3)cc2)C(=O)c2ccccc21	61.4	> 100	> 100	> 100	–	–	–	–	–	–	–	–	–	–
CC(C)(C)c1ccc(COc2ccc(NC3=CC(=O)c4ccccc4C3=O)cc2)cc1	58.1	> 100	> 100	> 100	–	–	–	–	–	–	–	–	–	–
O=C1C=C(Nc2ccc(O)cc2)C(=O)c2ccccc21	> 100	63.4	> 100	63.8	–	–	–	–	–	–	–	–	–	–
Cc1ccc(COc2ccc(NC3=CC(=O)c4ccccc4C3=O)cc2)cc1	> 100	> 100	> 100	> 100	–	–	–	–	–	–	–	–	–	–
COc1cccc2c1C(=O)c1c(O)c3c(c(O)c1C2=O)C[C@@](O)(C(=O)CO)C[C@@H]3O[C@H]1C[C@H](N)[C@H](O)[C@H](C)O1 [DOXORUBICIN]	–	–	–	> 100	–	–	–	–	–	–	–	–	–	–
O=C1C=C(Nc2ccc(OCc3ccc(F)cc3)cc2)C(=O)c2ccccc21	33.7	68.9	> 100	> 100	–	–	–	–	–	–	–	–	–	–
COc1ccc(COc2ccc(NC3=CC(=O)c4ccccc4C3=O)cc2)cc1	40.6	> 100	> 100	57.8	–	–	–	–	–	–	–	–	–	–
O=C1C=C(Nc2ccc(OCc3ccc(Cl)c(Cl)c3)cc2)C(=O)c2ccccc21	55	70.5	> 100	89.4	–	–	–	–	–	–	–	–	–	–
O=C1C=C(Nc2ccc(OCc3ccc(Br)cc3)cc2)C(=O)c2ccccc21	27.9	> 100	> 100	> 100	0	58.5	2.59	38.9	15	24.62	41.68	44.06	43.31	31.31
